“Also recorded” adds a separate entry of the source.
Assays:
[1] = target: T1, importin-α (Mus musculus, UniProt P52293); assay: X-ray crystal structure of Tat:NLS/CPP importin-α complex (PDB 5SVZ)
[2] = target: T1, importin-α; assay: Binding of importin-α to immobilised GST-Tat:NLS/CPP on glutathione column, SDS-PAGE; parameters: 6-His; made in house; The pET30 vector and Studier autoinduction imply E. coli (own inference); conditions: GST-Tat:NLS/CPP fusion immobilised on glutathione column, importin-α passed over
[3] = overall binding, 2.0 Å structure

For “GRKKRRQRRRAPQN [Tat:NLS/CPP, entire cell penetrating region of HIV-1 Tat, residues 48–61, recombinantly expressed as a GST-fusion, tag cleaved by TEV for crystallisation]”, the “binding site on importin-α” value ([1]; 2.0 Å structure) was “binds to the major binding site of importin-α within ARM domains 2–4; also recorded: no NLS residues in the minor binding site”, the hydrogen bond distance ([1]; Tat Arg49 O – importin-α Asn235 ND2, PDBSum) was 2.77 Å and the hydrogen bond distance ([1]; Tat Arg52 NH1 – importin-α Arg106 O, PDBSum) was 2.81 Å. It also gave a hydrogen bond distance ([1]; Tat Arg52 NH1 – importin-α Leu104 O, PDBSum) of 2.84 Å, a hydrogen bond distance ([1]; Tat Arg52 NH2 – importin-α Arg106 O, PDBSum) of 3.02 Å and a hydrogen bond distance ([1]; Tat Arg52 NH2 – importin-α Glu107 O, PDBSum) of 3.20 Å. It also gave a hydrogen bond distance ([1]; Tat Arg53 N – importin-α Asn146 OD1, PDBSum) of 2.89 Å, a hydrogen bond distance ([1]; Tat Arg53 NH1 – importin-α Gln181 OE1, PDBSum) of 2.49 Å and a hydrogen bond distance ([1]; Tat Arg53 O – importin-α Asn146 ND2, PDBSum) of 2.66 Å. It also gave a hydrogen bond distance ([1]; Tat Arg53 O – importin-α Trp142 NE1, PDBSum) of 3.24 Å, a salt bridge distance ([1]; Tat Lys50 NZ – importin-α Asp192 OD1, salt bridge interaction, PDBSum) of 2.89 Å and a hydrogen bond distance ([1]; Tat Lys50 NZ – importin-α Gly150 O, PDBSum) of 2.91 Å. The hydrogen bond distance ([1]; Tat Lys50 NZ – importin-α Thr155 OG1, PDBSum) was 2.80 Å, the hydrogen bond distance ([1]; Tat Lys51 N – importin-α Asn188 OD1, PDBSum) was 2.81 Å and the hydrogen bond distance ([1]; Tat Lys51 O – importin-α Asn188 ND2, PDBSum) was 2.79 Å. The hydrogen bond distance ([1]; Tat Lys51 O – importin-α Trp184 NE1, PDBSum) was 3.02 Å, the buried surface area [1, 3] was 717 Å^2 and the “number of salt bridge interactions” value [1, 3] was 1 salt bridge. For the same sequence, the “binding to importin-α (column retention / complex formation)” value [2] was “strong and direct interaction”.

Source: publication PMC5431807, “Structural Basis for Importin-α Binding of the Human Immunodeficiency Virus Tat” (Scientific Reports, 2017)
